Source: PMC3116712 (ACS medicinal chemistry letters, 2011)

How the values were obtained:
A/M2-V27A mutant channel = A/M2-V27A mutant channel (Influenza A virus, UniProt P0DOF5, V27A); type: cell-based
A/M2 S31N mutant = A/M2 S31N mutant (Influenza A virus, UniProt P0DOF5, S31N); type: cell-based

Structure (SMILES)	percentage inhibition against V27A mutant of A/M2 (A/M2-V27A mutant channel; 100 µM) [%]	inhibitory effect on S31N mutant (in words) (A/M2 S31N mutant)	inhibitory effect on V27A mutant (in words) (A/M2-V27A mutant channel)
Cl.NC12CC3CC(CC(C3)C1)C2 [Amantadine, reference compound]	0		
Cl.NC(CO)C12CC3CC(CC(C3)C1)C2 (stereo not drawn) [Compound 27]		no inhibitory effect	no inhibitory effect
